Measurements: patent US7271130B2 (priority 2002, dated 2007)

Tested on: Erysiphe graminis f.sp. hordei
Format: in vivo
Conditions: 200 ppm

`CC#CC(C)(C)NC(=O)C(COC)Oc1cc(Cl)cc(Cl)c1` (stereo not shown) [4(1), 2-(3,5-dichlorophenoxy)-3-methoxy-N-(4-methylpent-2-yn-4-yl)propionamide] was tested. Which “control of fungal infection” value did it give?
The value was “at least 70%”.
